Data: patent US8541418B2, “Inhibitors of polo-like kinase” (Elan Pharmaceutical, Inc., priority 2009, dated 2013)
Like-named read-outs stand apart in the source and are kept apart here.

Key:
Type in all cases: biochemical
[1] = target: PLK2 (Homo sapiens, UniProt Q9NYY3); assay: PLK TR-FRET peptide assay, PLK2; conditions: read-out: Plk2 IC50
[2] = target: PLK3 (Homo sapiens, UniProt Q9H4B4); assay: PLK TR-FRET peptide assay, PLK3
[3] = target: PLK1 (Homo sapiens, UniProt P53350); assay: PLK TR-FRET peptide assay, PLK1
Chain of PLK1 (P53350 whole entry): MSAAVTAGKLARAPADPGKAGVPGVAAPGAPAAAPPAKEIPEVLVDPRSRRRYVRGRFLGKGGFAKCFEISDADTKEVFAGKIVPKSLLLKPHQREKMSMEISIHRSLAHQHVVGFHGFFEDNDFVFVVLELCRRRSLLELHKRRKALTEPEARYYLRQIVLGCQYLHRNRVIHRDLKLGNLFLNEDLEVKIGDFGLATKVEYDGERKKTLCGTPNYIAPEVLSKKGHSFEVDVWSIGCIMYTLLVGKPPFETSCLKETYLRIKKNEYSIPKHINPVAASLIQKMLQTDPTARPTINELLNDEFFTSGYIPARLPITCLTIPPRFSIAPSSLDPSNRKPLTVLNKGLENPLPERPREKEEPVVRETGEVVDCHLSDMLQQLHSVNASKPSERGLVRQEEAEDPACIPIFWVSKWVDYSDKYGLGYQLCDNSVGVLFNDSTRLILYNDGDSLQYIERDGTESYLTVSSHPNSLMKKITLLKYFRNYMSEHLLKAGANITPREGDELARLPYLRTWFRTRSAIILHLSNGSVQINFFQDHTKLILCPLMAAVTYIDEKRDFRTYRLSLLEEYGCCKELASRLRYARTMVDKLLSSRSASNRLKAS

[4] = GST-PLK3, 15 min reaction, read-out: Plk3 IC50
[5] = PLK TR-FRET peptide assay, GST-PLK2, 60 min reaction

Chain of PLK2 (Q9NYY3 whole entry): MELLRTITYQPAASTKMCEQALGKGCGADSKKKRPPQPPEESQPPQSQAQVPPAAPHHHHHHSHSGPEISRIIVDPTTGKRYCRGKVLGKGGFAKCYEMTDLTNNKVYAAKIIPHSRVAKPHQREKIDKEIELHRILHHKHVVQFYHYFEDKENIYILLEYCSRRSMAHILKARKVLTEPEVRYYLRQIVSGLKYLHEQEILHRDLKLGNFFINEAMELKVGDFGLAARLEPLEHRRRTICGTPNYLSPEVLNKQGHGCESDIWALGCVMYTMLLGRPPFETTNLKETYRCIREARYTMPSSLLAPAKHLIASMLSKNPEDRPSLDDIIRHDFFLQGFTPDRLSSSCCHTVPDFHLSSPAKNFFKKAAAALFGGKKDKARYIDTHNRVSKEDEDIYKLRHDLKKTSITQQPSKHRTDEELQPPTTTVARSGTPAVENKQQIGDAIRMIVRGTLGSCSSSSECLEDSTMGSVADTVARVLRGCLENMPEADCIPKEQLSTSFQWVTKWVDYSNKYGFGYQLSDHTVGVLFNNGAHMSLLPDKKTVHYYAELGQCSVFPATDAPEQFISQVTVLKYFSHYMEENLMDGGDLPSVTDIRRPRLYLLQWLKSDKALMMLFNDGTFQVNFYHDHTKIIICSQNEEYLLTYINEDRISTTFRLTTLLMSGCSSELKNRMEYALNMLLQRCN
Chain of PLK3 (Q9H4B4 whole entry): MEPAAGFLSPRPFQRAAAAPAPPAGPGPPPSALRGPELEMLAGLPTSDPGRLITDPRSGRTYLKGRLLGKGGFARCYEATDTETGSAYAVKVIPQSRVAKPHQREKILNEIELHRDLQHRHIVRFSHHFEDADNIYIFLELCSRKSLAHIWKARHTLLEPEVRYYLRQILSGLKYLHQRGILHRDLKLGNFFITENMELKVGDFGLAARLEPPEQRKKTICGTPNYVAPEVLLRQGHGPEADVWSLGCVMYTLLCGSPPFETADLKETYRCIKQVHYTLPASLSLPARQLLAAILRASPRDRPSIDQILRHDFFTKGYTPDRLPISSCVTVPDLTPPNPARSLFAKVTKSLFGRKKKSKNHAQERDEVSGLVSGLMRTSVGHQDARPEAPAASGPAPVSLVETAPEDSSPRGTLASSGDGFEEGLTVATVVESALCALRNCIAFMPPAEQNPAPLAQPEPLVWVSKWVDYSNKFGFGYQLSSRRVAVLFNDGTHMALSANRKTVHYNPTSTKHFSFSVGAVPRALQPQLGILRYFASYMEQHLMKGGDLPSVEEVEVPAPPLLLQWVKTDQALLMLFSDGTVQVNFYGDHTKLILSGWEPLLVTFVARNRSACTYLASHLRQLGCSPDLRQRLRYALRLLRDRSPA

IC50 [2, 4] | IC50 ([3]; GST-PLK1, 60 min reaction) | IC50 [1, 5] | IC50 ([1]; PLK TR-FRET peptide assay, GST-PLK2) | IC50 ([2]; GST-PLK3, read-out: Plk3 IC50) | IC50 ([3]; GST-PLK1) | Compound | IC50 [1]
1 to 10 µM | 1 to 10 µM | < 1000 nM | – | – | – | [2H]C([2H])([2H])N1C(=O)C(C([2H])([2H])C([2H])([2H])[2H])N(C([2H])(C([2H])([2H])[2H])C([2H])([2H])[2H])c2nc(-n3ccnc3-c3ccc(F)cc3)ncc21 (racemic) [Example 162, 7-perdeuteroethyl-2-(2-(4-fluorophenyl)-1H-imidazol-1-yl)-8-perdeuteroisopropyl-5-trideuteromethyl-7,8-dihydropteridin-6(5H)-one] | –
10 to 50 µM | < 1 µM | < 1000 nM | – | – | – | [2H]C([2H])([2H])N1C(=O)C(C([2H])([2H])C([2H])([2H])[2H])N(C([2H])(C([2H])([2H])[2H])C([2H])([2H])[2H])c2nc(-n3ccnc3-c3cc(F)cc(F)c3)ncc21 (racemic) [Example 163, 2-(2-(3,5-difluorophenyl)-1H-imidazol-1-yl)-7-perdeuteroethyl-8-perdeuteroisopropyl-5-trideuteromethyl-7,8-dihydropteridin-6(5H)-one] | –
1 to 10 µM | < 1 µM | < 1000 nM | – | – | – | [2H]C([2H])([2H])N1C(=O)C(C([2H])([2H])C([2H])([2H])[2H])N(C([2H])(C([2H])([2H])[2H])C([2H])([2H])[2H])c2nc(-n3ccnc3-c3cccc(F)c3)ncc21 (racemic) [Example 180, 7-perdeuteroethyl-2-(2-(3-fluorophenyl)-1H-imidazol-1-yl)-8-perdeuteroisopropyl-5-trideuteromethyl-7,8-dihydropteridin-6(5H)-one] | –
10 to 50 µM | 10 to 50 µM | < 1000 nM | – | – | – | CCC12CCCCCN1c1nc(-n3ccnc3-c3ccccc3)ncc1N(C)C2=O (racemic) [Example 205, (+/−) 6a-ethyl-5-methyl-2-(2-phenyl-1H-imidazol-1-yl)-6a,7,8,9,10,11-hexahydroazepino[2,1-h]pteridin-6(5H)-one] | –
10 to 50 µM | 1 to 10 µM | 1000 to 10000 nM | – | – | – | CCC12CCCCCN1c1nc(-n3ncnc3-c3ccccc3)ncc1N(C)C2=O (racemic) [Example 216, (+/−) 6a-ethyl-5-methyl-2-(5-phenyl-1H-1,2,4-triazol-1-yl)-6a,7,8,9,10,11-hexahydroazepino[2,1-h]pteridin-6(5H)-one] | –
> 50 µM | > 50 µM | 10000 to 50000 nM | – | – | – | CCC12CCCCCN1c1nc(-n3ncnc3-c3cccc4ncccc34)ncc1N(C)C2=O (racemic) [Example 217, (+/−) 6a-ethyl-5-methyl-2-(5-(quinolin-5-yl)-1H-1,2,4-triazol-1-yl)-6a,7,8,9,10,11-hexahydroazepino[2,1-h]pteridin-6(5H)-one] | –
10 to 50 µM | 1 to 10 µM | < 1000 nM | – | – | – | CCC12CCCCN1c1nc(-n3ccnc3-c3ccccc3)ncc1N(C)C2=O (racemic) [Example 238, (+/−) 6a-ethyl-5-methyl-2-(2-phenyl-1H-imidazol-1-yl)-7,8,9,10-tetrahydro-5H-pyrido[2,1-h]pteridin-6(6aH)-one] | –
10 to 50 µM | 1 to 10 µM | < 1000 nM | – | – | – | CCC12CCCCN1c1nc(-n3ccnc3-c3cccc(F)c3)ncc1N(C)C2=O (racemic) [Example 239, (+/−) 6a-ethyl-2-(2-(3-fluorophenyl)-1H-imidazol-1-yl)-5-methyl-7,8,9,10-tetrahydro-5H-pyrido[2,1-h]pteridin-6(6aH)-one] | –
10 to 50 µM | 1 to 10 µM | < 1000 nM | – | – | – | CCC12CCCCN1c1nc(-n3ccnc3-c3ccc(F)c(F)c3)ncc1N(C)C2=O (racemic) [Example 240, (+/−) 2-(2-(3,4-difluorophenyl)-1H-imidazol-1-yl)-6a-ethyl-5-methyl-7,8,9,10-tetrahydro-5H-pyrido[2,1-h]pteridin-6(6aH)-one] | –
> 50 µM | 10 to 50 µM | < 1000 nM | – | – | – | CCC12CCCCN1c1nc(-n3ccnc3-c3cc(F)cc(F)c3)ncc1N(C)C2=O (racemic) [Example 243, (+/−) 2-(2-(3,5-difluorophenyl)-1H-imidazol-1-yl)-6a-ethyl-5-methyl-7,8,9,10-tetrahydro-5H-pyrido[2,1-h]pteridin-6(6aH)-one] | –
10 to 50 µM | 1 to 10 µM | < 1000 nM | – | – | – | CCC12CCCCN1c1nc(-n3ccnc3-c3cccc(F)c3F)ncc1N(C)C2=O (racemic) [Example 248, (+/−) 2-(2-(2,3-difluorophenyl)-1H-imidazol-1-yl)-6a-ethyl-5-methyl-7,8,9,10-tetrahydro-5H-pyrido[2,1-h]pteridin-6(6aH)-one] | –
> 50 µM | > 50 µM | < 1000 nM | – | – | – | CCC12CCCCN1c1nc(-n3ccnc3-c3cc(F)c(F)c(F)c3)ncc1N(C)C2=O (racemic) [Example 256, (+/−) 6a-ethyl-5-methyl-2-(2-(3,4,5-trifluorophenyl)-1H-imidazol-1-yl)-7,8,9,10-tetrahydro-5H-pyrido[2,1-h]pteridin-6(6aH)-one] | –
10 to 50 µM | 10 to 50 µM | < 1000 nM | – | – | – | CCC12CCCCN1c1nc(-n3ccnc3-c3ccc(F)cc3F)ncc1N(C)C2=O (racemic) [Example 257, (+/−) 2-(2-(2,4-difluorophenyl)-1H-imidazol-1-yl)-6a-ethyl-5-methyl-7,8,9,10-tetrahydro-5H-pyrido[2,1-h]pteridin-6(6aH)-one] | –
> 50 µM | > 50 µM | 10000 to 50000 nM | – | – | – | CCC12CCCCN1c1nc(-n3ccnc3)ncc1N(C)C2=O (racemic) [Example 283, (+/−) 6a-ethyl-2-(1H-imidazol-1-yl)-5-methyl-7,8,9,10-tetrahydro-5H-pyrido[2,1-h]pteridin-6(6aH)-one] | –
– | – | – | < 1000 nM | 1 to 10 µM | 1 to 10 µM | CCC1C(=O)N(C)c2cnc(-c3cnsc3-c3ccc(F)cc3)nc2N1c1cccc(C#N)c1 (racemic) [Example 401, 3-(7-ethyl-2-(5-(4-fluorophenyl)isothiazol-4-yl)-5-methyl-6-oxo-6,7-dihydropteridin-8(5H)-yl)benzonitrile] | –
10 to 50 µM | < 1 µM | < 1000 nM | – | – | – | CC[C@@H]1C(=O)N(C)c2cnc(-c3ccnc(NC)c3)nc2N1C1CCCC1 [Example 20, (R)-8-cyclopentyl-7-ethyl-5-methyl-2-(2-(methylamino)pyridin-4-yl)-7,8-dihydropteridin-6(5H)-one] | –
10 to 50 µM | < 1 µM | < 1000 nM | – | – | – | CC[C@@H]1C(=O)N(C)c2cnc(-c3ccnc(N(C)C)c3)nc2N1C1CCCC1 [Example 21, (R)-8-cyclopentyl-2-(2-(dimethylamino)pyridin-4-yl)-7-ethyl-5-methyl-7,8-dihydropteridin-6(5H)-one] | –
> 50 µM | 1 to 10 µM | < 1000 nM | – | – | – | CC[C@@H]1C(=O)N(C)c2cnc(-c3ccncc3)nc2N1C(C)C [Example 23, (R)-7-ethyl-8-isopropyl-5-methyl-2-(pyridin-4-yl)-7,8-dihydropteridin-6(5H)-one] | –
> 50 µM | 1 to 10 µM | < 1000 nM | – | – | – | CC[C@@H]1C(=O)N(C)c2cnc(-n3ccnc3C)nc2N1C1CCCC1 [Example 27, (R)-8-cyclopentyl-7-ethyl-5-methyl-2-(2-methyl-1H-imidazol-1-yl)-7,8-dihydropteridin-6(5H)-one] | –
> 50 µM | > 50 µM | > 50000 nM | – | – | – | CC[C@@H]1C(=O)Nc2cnc(-n3cccn3)nc2N1C1CCCC1 [Example 29, (R)-8-cyclopentyl-7-ethyl-2-(1H-pyrazol-1-yl)-7,8-dihydropteridin-6(5H)-one] | –
> 50 µM | 1 to 10 µM | < 1000 nM | – | – | – | CC[C@@H]1C(=O)N(C)c2cnc(-c3cn[nH]c3)nc2N1C(C)C [Example 31, (R)-7-ethyl-8-isopropyl-5-methyl-2-(1H-pyrazol-4-yl)-7,8-dihydropteridin-6(5H)-one] | –
1 to 10 µM | < 1 µM | < 1000 nM | – | – | – | CC[C@@H]1C(=O)N(C)c2cnc(-c3cnc4[nH]ccc4c3)nc2N1C1CCCC1 [Example 32, (R)-8-cyclopentyl-7-ethyl-5-methyl-2-(1H-pyrrolo[2,3-b]pyridin-5-yl)-7,8-dihydropteridin-6(5H)-one] | –
> 50 µM | > 50 µM | 10000 to 50000 nM | – | – | – | CN1C(=O)[C@H]2CCCN2c2nc(-n3ccnc3)ncc21 [Example 33, (R)-2-(1H-imidazol-1-yl)-5-methyl-6a,7,8,9-tetrahydropyrrolo[2,1-h]pteridin-6(5H)-one] | –
> 50 µM | > 50 µM | > 50000 nM | – | – | – | CN1C(=O)[C@H]2CCCN2c2nc(-c3ccncc3)ncc21 [Example 34, (R)-5-methyl-2-(pyridin-4-yl)-6a,7,8,9-tetrahydropyrrolo[2,1-h]pteridin-6(5H)-one] | –
10 to 50 µM | < 1 µM | < 1000 nM | – | – | – | CC[C@@H]1C(=O)N(C)c2cnc(-n3cnc(-c4ccccc4)c3)nc2N1C1CCCC1 [Example 36, (R)-8-cyclopentyl-7-ethyl-5-methyl-2-(4-phenyl-1H-imidazol-1-yl)-7,8-dihydropteridin-6(5H)-one] | –
10 to 50 µM | 1 to 10 µM | < 1000 nM | – | – | – | CC[C@@H]1C(=O)N(C)c2cnc(-n3cccn3)nc2N1C1CCCC1 [Example 42, (R)-8-cyclopentyl-7-ethyl-5-methyl-2-(1H-pyrazol-1-yl)-7,8-dihydropteridin-6(5H)-one] | –
10 to 50 µM | 10 to 50 µM | – | – | – | – | CC[C@@H]1C(=O)N(C)c2cnc(-n3ccnc3)nc2N1C1CC(F)(F)C1 [Example 303, (R)-8-(3,3-difluorocyclobutyl)-7-ethyl-2-(1H-imidazol-1-yl)-5-methyl-7,8-dihydropteridin-6(5H)-one] | –

Compound | IC50 [2, 4] | IC50 ([3]; GST-PLK1, 60 min reaction) | IC50 [1, 5] | IC50 ([1]; PLK TR-FRET peptide assay, GST-PLK2) | IC50 ([2]; GST-PLK3, read-out: Plk3 IC50) | IC50 ([3]; GST-PLK1) | IC50 [1]
7-perdeuteroethyl-8-perdeuteroisopropyl-5-trideuteromethyl-2-(3-phenylpyridin-4-yl)-7,8-dihydropteridin-6(5H)-one [Example 146] | < 1 µM | < 1 µM | – | – | – | – | < 1000 nM
